Data from PMC11848821, “Acrolein-Mediated Conversion of Lysine to Electrophilic Heterocycles for Protein Diversification and Toxicity Profiling” (Journal of the American Chemical Society, 2025).

What was measured:
Type in all cases: binding
lysozyme chicken = target: T1, lysozyme chicken (Gallus gallus, UniProt P00698); assay: intact protein MS and MS/MS; conditions: covalent; lysine adduct (FDP)
T1 construct: gene LYZ

lysozyme human = target: T2, lysozyme human (Homo sapiens, UniProt P61626); assay: intact protein MS and MS/MS; conditions: covalent; lysine adduct (FDP)
T2 construct: gene LYZ; commercial protein, mature
T2 sequence (P61626 19-148): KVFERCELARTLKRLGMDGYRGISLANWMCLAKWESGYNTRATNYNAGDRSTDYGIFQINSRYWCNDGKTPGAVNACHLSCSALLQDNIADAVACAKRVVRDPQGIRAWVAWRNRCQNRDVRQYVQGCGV

[1] = target: T3, bovine serum albumin (BSA) (Bos taurus, UniProt P02769); assay: in-gel fluorescence after thiol-FITC addition to the adduct; conditions: covalent; lysine adduct (FDP); 12 h
T3 construct: gene ALB; commercial native protein, mature
T3 sequence (P02769 25-607): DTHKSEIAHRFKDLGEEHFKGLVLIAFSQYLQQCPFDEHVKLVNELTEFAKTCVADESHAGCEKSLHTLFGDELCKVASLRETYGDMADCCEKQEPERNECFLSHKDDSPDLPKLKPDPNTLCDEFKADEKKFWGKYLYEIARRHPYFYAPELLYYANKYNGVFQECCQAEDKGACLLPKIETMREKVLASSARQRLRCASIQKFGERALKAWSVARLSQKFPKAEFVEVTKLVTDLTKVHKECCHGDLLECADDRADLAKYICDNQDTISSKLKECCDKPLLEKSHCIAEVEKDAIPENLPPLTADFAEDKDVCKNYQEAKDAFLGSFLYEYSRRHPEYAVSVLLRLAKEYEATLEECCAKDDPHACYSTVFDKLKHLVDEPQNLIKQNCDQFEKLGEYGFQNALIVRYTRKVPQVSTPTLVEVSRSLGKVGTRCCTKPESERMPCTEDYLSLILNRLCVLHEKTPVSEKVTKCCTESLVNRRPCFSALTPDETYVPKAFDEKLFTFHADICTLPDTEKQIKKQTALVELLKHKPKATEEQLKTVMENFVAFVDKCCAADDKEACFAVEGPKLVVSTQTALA

T1 sequence (P00698 19-147): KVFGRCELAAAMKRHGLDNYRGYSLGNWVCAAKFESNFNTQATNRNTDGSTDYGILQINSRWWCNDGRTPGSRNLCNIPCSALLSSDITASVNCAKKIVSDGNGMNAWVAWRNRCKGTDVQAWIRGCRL

C=CC=O [acrolein]
intact protein MS and MS/MS (lysozyme chicken): ribonuclease A, lysozyme chicken, lysozyme human, β-lactoglobulin, and apo-Transferrin
intact protein MS and MS/MS (lysozyme human): ribonuclease A, lysozyme chicken, lysozyme human, β-lactoglobulin, and apo-Transferrin
in-gel fluorescence after thiol-FITC addition to the adduct [1]: formation of FDP-lysine and labeling of Apo-transferrin, BSA, and myoglobin with FITC fluorophore
